PubChem BioAssay AID248 (DTP/NCI, 2004)
Values joined by “and” are separate entries in the source; they are usually repeats but may differ in a detail not shown here. Identical values can stand only once. Toxic doses and inconclusive results are not listed. Rule as the data show it: active = T/C of 150% or more; inactive = T/C below 125%.

System: L1210 leukemia ip in BDF1 mice, survival T/C
Experiment: NCI In Vivo Anticancer Drug Screen. Data for tumor model L1210 Leukemia (intraperitoneal) in B6D2F1 (BDF1) mice
Conditions: endpoint: mean survival time, higher = longer survival
Outline: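 Transplanted-tumor mice were given test agent; controls received vehicle only. Survival readings from the two groups were divided (treated over control).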

[1] = dose: 100.0 mg/kg/injection, schedule: Q01DX001 (ip), vehicle: carboxymethylcellulose (CMC)
[2] = dose: 200.0 mg/kg/injection, schedule: Q01DX001 (ip), vehicle: carboxymethylcellulose (CMC)
[3] = dose: 400.0 mg/kg/injection, schedule: Q01DX001 (ip), vehicle: carboxymethylcellulose (CMC)
[4] = dose: 100.0 mg/kg/injection, schedule: Q04DX002 (ip), vehicle: saline
[5] = dose: 200.0 mg/kg/injection, schedule: Q01DX009 (ip), vehicle: Klucel (hydroxypropylcellulose) (HPC)
[6] = dose: 200.0 mg/kg/injection, schedule: Q04DX002 (ip), vehicle: saline
[7] = dose: 400.0 mg/kg/injection, schedule: Q04DX002 (ip), vehicle: saline
[8] = dose: 100.0 mg/kg/injection, schedule: Q01DX009 (ip), vehicle: saline with Tween-80
[9] = dose: 100.0 mg/kg/injection, schedule: Q04DX003 (ip), vehicle: saline with Tween-80
[10] = dose: 200.0 mg/kg/injection, schedule: Q01DX009 (ip), vehicle: saline with Tween-80
[11] = dose: 200.0 mg/kg/injection, schedule: Q04DX003 (ip), vehicle: saline with Tween-80
[12] = dose: 400.0 mg/kg/injection, schedule: Q01DX009 (ip), vehicle: saline with Tween-80
[13] = dose: 400.0 mg/kg/injection, schedule: Q04DX003 (ip), vehicle: saline with Tween-80
[14] = dose: 100.0 mg/kg/injection, schedule: Q04DX003 (ip), vehicle: Klucel (hydroxypropylcellulose) (HPC)

Measured: T/C

NC(=O)NN=C1CCCCC1
inactive: dose: 12.5 mg/kg/injection, schedule: Q01DX009 (ip), vehicle: Klucel (hydroxypropylcellulose) (HPC) 97 % of control | dose: 25.0 mg/kg/injection, schedule: Q01DX009 (ip), vehicle: Klucel (hydroxypropylcellulose) (HPC) 97 % of control | dose: 50.0 mg/kg/injection, schedule: Q01DX009 (ip), vehicle: Klucel (hydroxypropylcellulose) (HPC) 102 % of control | dose: 70.0 mg/kg/injection, schedule: Q01DX009 (ip), vehicle: Klucel (hydroxypropylcellulose) (HPC) 87 % of control

C=CCC1(Cc2ccsc2)C(=O)NC(=O)NC1=O
inactive: [1] 90 % of control | [2] 92 % of control | [3] 100 % of control

CC(O)C(N)C(=O)O (configuration not stated)
inactive: dose: 12.5 mg/kg/injection, schedule: Q04DX002 (ip), vehicle: saline 103 % of control and 97 % of control | dose: 18.75 mg/kg/injection, schedule: Q04DX003 (ip), vehicle: saline 101 % of control | dose: 25.0 mg/kg/injection, schedule: Q04DX002 (ip), vehicle: saline 107 % of control | dose: 37.5 mg/kg/injection, schedule: Q04DX003 (ip), vehicle: saline 98 % of control | dose: 50.0 mg/kg/injection, schedule: Q04DX002 (ip), vehicle: saline 107 % of control | dose: 75.0 mg/kg/injection, schedule: Q04DX003 (ip), vehicle: saline 108 % of control and 114 % of control | [1] 87 % of control | [4] 107 % of control | dose: 150.0 mg/kg/injection, schedule: Q04DX003 (ip), vehicle: saline 108 % of control | [2] 91 % of control | [5] 91 % of control | [6] 93 % of control | dose: 300.0 mg/kg/injection, schedule: Q04DX003 (ip), vehicle: saline 94 % of control | [3] 89 % of control | [7] 107 % of control

N#C/C(=C1C=C(Br)/C(=N\O)C=C\1Cl)c1cccc2ccccc12
inactive: [8] 98 % of control | [9] 95 % of control | [10] 93 % of control | [11] 90 % of control | [12] 94 % of control | [13] 104 % of control

Cc1c(Cl)cccc1NC(=O)Nc1cccc(C(F)(F)F)c1
inactive: dose: 100.0 mg/kg/injection, schedule: Q01DX001 (ip), vehicle: saline with Tween-80 87 % of control and 88 % of control | [8] 94 % of control and 104 % of control | dose: 100.0 mg/kg/injection, schedule: Q04DX002 (ip), vehicle: saline with Tween-80 93 % of control and 90 % of control | [9] 94 % of control | dose: 200.0 mg/kg/injection, schedule: Q01DX001 (ip), vehicle: saline with Tween-80 91 % of control | [10] 93 % of control and 97 % of control | dose: 200.0 mg/kg/injection, schedule: Q04DX002 (ip), vehicle: saline with Tween-80 88 % of control and 89 % of control | [11] 97 % of control | dose: 400.0 mg/kg/injection, schedule: Q01DX001 (ip), vehicle: saline with Tween-80 94 % of control and 89 % of control | [12] 100 % of control and 104 % of control | dose: 400.0 mg/kg/injection, schedule: Q04DX002 (ip), vehicle: saline with Tween-80 100 % of control and 90 % of control | [13] 96 % of control

CC1(C)CC(N=Cc2ccccc2O)CC(C)(C)N1O.CC1(C)CC(N=Cc2ccccc2O)CC(C)(C)N1O.[Cu]
inactive: dose: 12.5 mg/kg/injection, schedule: Q04DX003 (ip), vehicle: saline 89 % of control | dose: 25.0 mg/kg/injection, schedule: Q04DX003 (ip), vehicle: saline 101 % of control | dose: 50.0 mg/kg/injection, schedule: Q04DX003 (ip), vehicle: saline 101 % of control

CC(=O)[C@H]1CC[C@H]2[C@@H]3CCC4=CC(=O)C=C[C@]4(C)[C@H]3C(=O)C[C@]12C
inactive: dose: 25.0 mg/kg/injection, schedule: Q01DX015 (sc), vehicle: steriod suspending solution 98 % of control | dose: 50.0 mg/kg/injection, schedule: Q01DX015 (sc), vehicle: steriod suspending solution 100 % of control | dose: 100.0 mg/kg/injection, schedule: Q01DX009 (sc), vehicle: steriod suspending solution 97 % of control | dose: 100.0 mg/kg/injection, schedule: Q01DX015 (sc), vehicle: steriod suspending solution 93 % of control | dose: 100.0 mg/kg/injection, schedule: Q04DX003 (ip), vehicle: steriod suspending solution 98 % of control | dose: 200.0 mg/kg/injection, schedule: Q01DX009 (sc), vehicle: steriod suspending solution 97 % of control | dose: 200.0 mg/kg/injection, schedule: Q01DX015 (sc), vehicle: steriod suspending solution 104 % of control and 107 % of control | dose: 200.0 mg/kg/injection, schedule: Q04DX003 (ip), vehicle: steriod suspending solution 101 % of control | dose: 400.0 mg/kg/injection, schedule: Q01DX009 (sc), vehicle: steriod suspending solution 100 % of control | dose: 400.0 mg/kg/injection, schedule: Q01DX015 (sc), vehicle: steriod suspending solution 104 % of control | dose: 400.0 mg/kg/injection, schedule: Q04DX003 (ip), vehicle: steriod suspending solution 112 % of control | dose: 800.0 mg/kg/injection, schedule: Q01DX015 (sc), vehicle: steriod suspending solution 104 % of control

CN(Cc1ccc(Cl)cc1)C(=O)NCCCCCCNC(=O)N(C)Cc1ccc(Cl)cc1
inactive: dose: 100.0 mg/kg/injection, schedule: Q01DX009 (ip), vehicle: Klucel (hydroxypropylcellulose) (HPC) 100 % of control | [5] 94 % of control | dose: 400.0 mg/kg/injection, schedule: Q01DX009 (ip), vehicle: Klucel (hydroxypropylcellulose) (HPC) 92 % of control

[N-]=[N+]=Nc1nc2c(N)ncnc2n1C1OC(CO)C(O)C1O (configuration not stated)
inactive: dose: 25.0 mg/kg/injection, schedule: Q01DX001 (ip), vehicle: saline 102 % of control | dose: 50.0 mg/kg/injection, schedule: Q01DX001 (ip), vehicle: saline 105 % of control | dose: 100.0 mg/kg/injection, schedule: Q01DX001 (ip), vehicle: saline 103 % of control

CC(C)(C)OC(=O)NO
inactive: dose: 100.0 mg/kg/injection, schedule: Q01DX009 (ip), vehicle: saline 103 % of control | [4] 110 % of control | dose: 100.0 mg/kg/injection, schedule: Q04DX003 (ip), vehicle: saline 104 % of control | dose: 200.0 mg/kg/injection, schedule: Q01DX009 (ip), vehicle: saline 100 % of control | [6] 98 % of control | dose: 200.0 mg/kg/injection, schedule: Q04DX003 (ip), vehicle: saline 104 % of control | dose: 400.0 mg/kg/injection, schedule: Q01DX009 (ip), vehicle: saline 108 % of control | [7] 110 % of control | dose: 400.0 mg/kg/injection, schedule: Q04DX003 (ip), vehicle: saline 106 % of control

CCCN(CCC)C(=O)CCC(C)O (configuration not stated)
inactive: dose: 100.0 mg/kg/injection, schedule: Q01DX001 (ip), vehicle: acetone 113 % of control | dose: 200.0 mg/kg/injection, schedule: Q01DX001 (ip), vehicle: acetone 101 % of control | dose: 400.0 mg/kg/injection, schedule: Q01DX001 (ip), vehicle: acetone 103 % of control

CCOc1ccc(NC(N)=O)cc1
inactive: dose: 100.0 mg/kg/injection, schedule: Q04DX002 (ip), vehicle: gum acacia 107 % of control | dose: 200.0 mg/kg/injection, schedule: Q04DX002 (ip), vehicle: gum acacia 95 % of control | dose: 400.0 mg/kg/injection, schedule: Q04DX002 (ip), vehicle: gum acacia 100 % of control

CC(=O)OC1OC(CS[As](C)C)C(OC(C)=O)C(OC(C)=O)C1OC(C)=O (configuration not stated)
inactive: [14] 94 % of control | dose: 200.0 mg/kg/injection, schedule: Q04DX003 (ip), vehicle: Klucel (hydroxypropylcellulose) (HPC) 105 % of control

NNC(=S)NC1CCCCC1
inactive: dose: 25.0 mg/kg/injection, schedule: Q04DX003 (ip), vehicle: Klucel (hydroxypropylcellulose) (HPC) 100 % of control | dose: 50.0 mg/kg/injection, schedule: Q04DX003 (ip), vehicle: Klucel (hydroxypropylcellulose) (HPC) 95 % of control | [14] 95 % of control and 90 % of control | [9] 96 % of control | [11] 96 % of control | [13] 96 % of control

O=C1CCC(=O)N1c1ccccc1
inactive: dose: 100.0 mg/kg/injection, schedule: Q04DX002 (ip), vehicle: Klucel (hydroxypropylcellulose) (HPC) 96 % of control | dose: 200.0 mg/kg/injection, schedule: Q04DX002 (ip), vehicle: Klucel (hydroxypropylcellulose) (HPC) 92 % of control | dose: 400.0 mg/kg/injection, schedule: Q04DX002 (ip), vehicle: Klucel (hydroxypropylcellulose) (HPC) 92 % of control
